Measured values from ChEMBL document CHEMBL5316370, “Laeviganoids A-T, ent-Clerodane-Type Diterpenoids from Croton laevigatus” (2023).
Activity calls are given as the source filed them. No cut-off for these calls is given here.

Key:
RAW264.7 [1] = test: Anti-inflammatory activity against IL-4/IL-13 stimulated mouse RAW264.7 cells assessed as upregulation of TNFalpha secretion at 20 uM incubated for 48 hrs by ELISA method; type: functional, cell-based
RAW264.7 [2] = test: Anti-inflammatory activity against IL-4/IL-13 stimulated mouse RAW264.7 cells assessed as inhibition of IL-10 secretion at 20 uM incubated for 48 hrs by ELISA method; type: functional, cell-based
RAW264.7 [3] = test: Anti-inflammatory activity against IL-4/IL-13 stimulated mouse RAW264.7 cells assessed as upregulation of TNFalpha secretion at 5 to 20 uM incubated for 48 hrs by ELISA method relative to control; type: functional; settings: dose 5-20 µM
RAW264.7 [4] = test: Anti-inflammatory activity against IL-4/IL-13 stimulated mouse RAW264.7 cells assessed as inhibition of IL-10 secretion at 5 to 20 uM incubated for 48 hrs by ELISA method relative to control; type: functional; settings: dose 5-20 µM

| Compound | Activity (RAW264.7 [1]) | inhibition (RAW264.7 [2]) | Activity (RAW264.7 [3]) | inhibition (INH) (RAW264.7 [4]) |
| --- | --- | --- | --- | --- |
| C[C@@H]1CC[C@]2(C)[C@H](CC[C@@H](O)[C@]2(C)O)[C@@]1(C)CCc1ccoc1 | Active | Active | – | – |
| CC(=O)O[C@@H]1[C@@H](c2ccoc2)OC(=O)[C@@H]2CC[C@]3(C)[C@H](CC[C@@H](O)[C@]3(C)O)[C@@]12C | – | Active | – | – |
| CC1=CC(=O)O[C@@H]1C[C@@]1(C)[C@H](C)CC[C@@]2(C)C(C)=CC(=O)C[C@H]12 | – | Active | – | – |
| C[C@@H]1C(=O)CC[C@@H]2[C@@](C)(CCc3ccoc3)[C@H](CO)CC[C@]21C | – | Active | – | – |
| C[C@]1(C[C@H](O)c2ccoc2)[C@H](CO)CC[C@]2(C)[C@@H]1CC[C@@H](O)[C@]2(C)O | Active | Active | – | – |
| C[C@]12[C@H](OC(=O)c3ccccc3)[C@@H](c3ccoc3)OC(=O)[C@@H]1CC[C@]1(C)[C@@H]2CC[C@@H](O)[C@]1(C)O | – | Active | – | – |
| C=C1[C@H](O)CC[C@@H]2[C@@](C)(C[C@H](O)c3ccoc3)[C@H](C)CC[C@@]12C | – | Active | – | – |
| COC(=O)[C@@H]1CC[C@]2(C)[C@H](CC[C@@H](O)[C@]2(C)OC)[C@@]1(C)CC(=O)c1ccoc1 | Active | Active | – | – |
| C[C@]1(CCc2ccoc2)[C@H](CO)CC[C@]2(C)[C@@H]1CC[C@@H](O)[C@]2(C)O | – | Active | – | – |
| C[C@]12C(=CC[C@]3(C)[C@@H]1CC[C@@H](O)[C@]3(C)O)C(=O)O[C@H](c1ccoc1)[C@H]2OC(=O)c1ccccc1 | – | Active | – | – |
| CC1=CC(=O)O[C@H]1C[C@@]1(C)[C@H](C)CC[C@@]2(C)C(C)=CCC[C@H]12 | – | Active | – | – |
| C[C@@H]1CC[C@]2(C)[C@H](CC[C@@H](O)[C@]2(C)O)[C@@]1(C)CC(=O)c1ccoc1 | – | Active | – | – |
| CC(=O)O[C@@H]1[C@@H](c2ccoc2)OC(=O)[C@@H]2CC[C@@]3(C)C(C)C(=O)CC[C@@H]3[C@@]12C (stereo partly drawn) | – | Active | – | – |
| C[C@@H]1CC[C@]2(C)[C@H](CCC(=O)[C@H]2C)[C@@]1(C)CC(=O)c1ccoc1 | – | Active | – | – |
| C[C@]12C[C@@H](c3ccoc3)OC(=O)[C@@H]1CC[C@]1(C)[C@@H]2CCC(=O)[C@@]1(C)O | – | Active | – | – |
| CO[C@@]1(C)[C@H](O)CC[C@@H]2[C@@]3(C)[C@H](OC(=O)c4ccccc4)[C@@H](c4ccoc4)OC(=O)[C@@H]3CC[C@]21C | Active | Active | >40% | >40% |
| CCO[C@@]1(C)[C@H](O)CC[C@@H]2[C@@](C)(CC(=O)c3ccoc3)[C@H](C)CC[C@]21C | Active | Active | >40% | >40% |
| CO[C@@]1(C)[C@H](O)CC[C@@H]2[C@@](C)(C[C@H](O)c3ccoc3)[C@H](C)CC[C@]21C | Active | Active | >40% | >40% |
| COC(=O)[C@@H]1CC[C@]2(C)[C@H](CC[C@@H](O)[C@]2(C)O)[C@@]1(C)CC(=O)c1ccoc1 | Active | Active | – | – |
| CC1=CC(=O)O[C@@H]1C[C@@]1(C)[C@H](C)CC[C@@]2(C)C(C)=CCC[C@H]12 | – | Active | – | – |
| CC1=CCC[C@@H]2[C@@]3(C)C[C@@H](c4ccoc4)OC(=O)[C@@H]3CC[C@@]12C | – | Active | – | – |
| C/C(=C\CO)CC[C@@]1(C)[C@H](C)CC[C@@]2(C)C(CO)=CCC[C@H]12 | Active | Active | >40% | >40% |
| C[C@]12C[C@@H](c3ccoc3)OC(=O)[C@@H]1CC[C@]1(C)[C@@H]2CCC(=O)[C@]1(C)O | – | Active | – | – |
| C[C@@H]1CC[C@]2(C)[C@H](CCC(=O)[C@H]2C)[C@@]1(C)CCc1ccoc1 | Active | Active | – | – |
| C[C@]12C[C@@H](c3ccoc3)OC(=O)[C@@H]1CC[C@]1(C)[C@@H]2CC[C@H](Cl)[C@@]1(C)O | – | Active | – | – |
| C=C1[C@H](O)CC[C@@H]2[C@@](C)(CC(=O)c3ccoc3)[C@H](C)CC[C@@]12C | – | Active | – | – |
